In ChEMBL document CHEMBL5356989, “Impact of multiple H/D replacements on the physicochemical properties of flurbiprofen” (RSC Med Chem, 2023):
≈ marks a conversion by molar mass, not a printed value.

Assays:
Cytochrome P450 2C9 [1] = molecular target: T1, Cytochrome P450 2C9 (Homo sapiens, UniProt P11712); assay: Drug metabolism assessed as recombinant CYP2C9 (unknown origin)-mediated 4'-hydroxy FP metabolite formation at 1 to 5 uM incubated for 10 mins in presence of NADPH by LC-MS analysis; format: ADME; details: recombinant enzyme, dose 1-5 µM
[2] = Cmax in fasted Sprague Dawley rat at 10 mg/kg, po measured for 8 hrs by HPLC analysis; format: ADME, organism-based; design: dose 10 mg/kg, time 8 hrs, route po; details: in vivo
[3] = Tmax in fasted Sprague Dawley rat at 10 mg/kg, po measured for 8 hrs by HPLC analysis; format: ADME, organism-based; details: in vivo
[4] = AUC (0 to 8 hrs) in fasted Sprague Dawley rat at 10 mg/kg, po measured for 8 hrs by HPLC analysis; format: ADME, organism-based; design: dose 10 mg/kg, time 8 hrs, route po; details: in vivo
[5] = Oral bioavailability in fasted Sprague Dawley rat at 10 mg/kg measured for 8 hrs by HPLC analysis; format: ADME, organism-based; details: in vivo
[6] = Clearance in Sprague Dawley rat at 1 mg/kg, iv measured for 8 hrs by HPLC analysis; format: ADME, organism-based; details: in vivo
[7] = Volume of distribution at steady state in Sprague Dawley rat at 1 mg/kg, iv measured for 8 hrs by HPLC analysis; format: ADME, organism-based; details: in vivo, read-out: Vdss
[8] = AUC (0 to 8 hrs) in Sprague Dawley rat at 1 mg/kg, iv measured for 8 hrs by HPLC analysis; format: ADME, organism-based; design: dose 1 mg/kg, time 8 hrs, route iv; details: in vivo
[9] = Lipophilicity, log D of compound in n-octanol/PBS at pH 7.4 at 10 mg measured for 48 hrs by HPLC analysis; format: physicochemical
[10] = Solubility in distilled water at 1 mg measured for 28 hrs by HPLC analysis; format: physicochemical
[11] = Solubility in HCl at pH 1.2 at 1 mg measured for 28 hrs by HPLC analysis; format: physicochemical; details: HCl pH 1.2, pH 1.2
[12] = Solubility in PBS at pH 6.0 at 1 mg measured for 28 hrs by HPLC analysis; format: physicochemical; details: PBS pH 6.0, pH 6
[13] = Permeability of compound assessed as drug flux measured for 2 to 6 hrs by PAMPA assay; format: ADME; details: time 2-6 hrs
[14] = Apparent permeability of compound by PAMPA assay; format: ADME
[15] = Half life in Sprague Dawley rat at 1 mg/kg, iv measured for 8 hrs by HPLC analysis; format: ADME, organism-based; details: in vivo
Cytochrome P450 2C9 [16] = molecular target: T1, Cytochrome P450 2C9; assay: Drug metabolism assessed as recombinant CYP2C9 (unknown origin)-mediated 4'-hydroxyl FP-d7 metabolite formation at 1 to 5 uM incubated for 10 mins in presence of NADPH by LC-MS analysis; format: ADME; details: recombinant enzyme, dose 1-5 µM
Cytochrome P450 2C9 [17] = molecular target: T1, Cytochrome P450 2C9; assay: Drug metabolism assessed as recombinant CYP2C9 (unknown origin)-mediated 4'-hydroxyl FP-d7 metabolite formation by measuring Vmax per nmol of CYP at 1 to 5 uM incubated for 10 mins in presence of NADPH by LC-MS analysis; format: ADME; details: recombinant enzyme, dose 1-5 µM
Cytochrome P450 2C9 [18] = molecular target: T1, Cytochrome P450 2C9; assay: Drug metabolism assessed as recombinant CYP2C9 (unknown origin)-mediated 4'-hydroxyl FP-d7 metabolite formation by measuring Vmax/Km per nmol of CYP at 1 to 5 uM incubated for 10 mins in presence of NADPH by LC-MS analysis; format: ADME; details: recombinant enzyme, dose 1-5 µM

T1 sequence (P11712 whole entry): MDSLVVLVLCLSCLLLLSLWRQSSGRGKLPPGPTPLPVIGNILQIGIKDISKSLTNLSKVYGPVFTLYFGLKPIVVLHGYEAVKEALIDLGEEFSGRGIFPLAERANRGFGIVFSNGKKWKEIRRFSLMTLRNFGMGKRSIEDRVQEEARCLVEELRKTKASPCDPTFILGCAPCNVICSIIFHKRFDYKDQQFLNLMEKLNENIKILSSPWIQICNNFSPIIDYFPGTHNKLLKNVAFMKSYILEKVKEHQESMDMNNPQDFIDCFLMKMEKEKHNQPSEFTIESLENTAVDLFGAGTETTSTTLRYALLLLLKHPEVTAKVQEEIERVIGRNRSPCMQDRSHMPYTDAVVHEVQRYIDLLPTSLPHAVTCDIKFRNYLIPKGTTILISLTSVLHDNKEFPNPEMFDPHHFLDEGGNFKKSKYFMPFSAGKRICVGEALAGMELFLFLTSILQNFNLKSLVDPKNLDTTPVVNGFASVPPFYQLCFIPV

Structure (SMILES) | Drug metabolism (Cytochrome P450 2C9 [1]) | Cmax [2] | Tmax [3] | AUC(0-t) at 8 h [4] | bioavailability [5] | clearance [6] | Vd [7] | AUC(0-t) at 8 h [8] | logD at 48 h [9] | solubility at 28 h [10] | solubility at 28 h [11] | solubility at 28 h [12] | Drug transport [13] | Papp [14] | half-life [15] | Drug metabolism (Cytochrome P450 2C9 [16]) | Vmax (Cytochrome P450 2C9 [17]) | Vmax/Km (Cytochrome P450 2C9 [18])
CC(C(=O)O)c1ccc(-c2ccccc2)c(F)c1 (configuration not stated) [FLURBIPROFEN] | Metabolite_Detected | 29600 ng/mL | 30 min | 130000 ng·h/mL | 66.9% | 0.216 mL/min/kg | 0.0204 L/kg | 19500 ng·h/mL | 0.9 | 24.1 µg/mL (≈ 98.7 µM) | 5.9 µg/mL (≈ 24.2 µM) | 810 µg/mL (≈ 3310 µM) | 4.53 µg/h | 5.24 ×10⁻⁶ cm/s | 34.2 min | – | – | –
[2H]c1c([2H])c([2H])c(-c2c([2H])c([2H])c(C(C)C(=O)O)c([2H])c2F)c([2H])c1[2H] (configuration not stated) | – | 33000 ng/mL | 60 min | 144000 ng·h/mL | 75.3% | 0.217 mL/min/kg | 0.0207 L/kg | 19200 ng·h/mL | 0.87 | 32.7 µg/mL (≈ 129 µM) | 12.7 µg/mL (≈ 50.5 µM) | 918 µg/mL (≈ 3640 µM) | 4.6 µg/h | 5.32 ×10⁻⁶ cm/s | 33 min | Metabolite_Detected | 0.91 pmol/min | 1.24 µL/min
